Values joined by “and” are separate entries in the source; they are usually repeats but may differ in a detail not shown here. Equal entries are not always repeated.
Key:
Test in all cases: PDSP GPCR panel primary binding assays at 10 μM
[1] = molecular target: T1, cloned human or rodent CNS receptors, channels, and transporters (PDSP panel) (Homo sapiens, UniProt P08908); details: primary assay
T1 construct: expressed in transfected cells
T1 sequence (P08908 1-422): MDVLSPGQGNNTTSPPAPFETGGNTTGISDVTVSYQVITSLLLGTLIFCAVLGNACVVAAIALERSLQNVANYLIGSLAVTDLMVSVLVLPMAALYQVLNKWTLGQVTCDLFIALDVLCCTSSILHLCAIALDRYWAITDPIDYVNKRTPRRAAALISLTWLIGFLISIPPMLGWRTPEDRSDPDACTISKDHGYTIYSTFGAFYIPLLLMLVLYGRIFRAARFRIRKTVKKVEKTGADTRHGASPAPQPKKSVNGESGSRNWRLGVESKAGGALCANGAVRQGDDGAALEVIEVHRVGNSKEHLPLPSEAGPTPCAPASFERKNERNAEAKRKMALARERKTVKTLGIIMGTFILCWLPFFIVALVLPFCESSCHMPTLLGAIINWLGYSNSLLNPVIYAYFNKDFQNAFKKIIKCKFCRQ
Method in brief: (§1)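 Each compound is first screened once at 10 μM, in quadruplicate, for radioligand displacement. Where mean displacement passes 50%, an 11-point dose-response in triplicate follows at that target, except at H3, PBR and GABAA.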

[2] = molecular target: T2, cloned human or rodent CNS receptors, channels, and transporters (PDSP panel) (Homo sapiens, UniProt P31645); details: primary assay; for Inhibition 1: replicate 1
T2 construct: expressed in transfected cells
T2 sequence (P31645 whole entry): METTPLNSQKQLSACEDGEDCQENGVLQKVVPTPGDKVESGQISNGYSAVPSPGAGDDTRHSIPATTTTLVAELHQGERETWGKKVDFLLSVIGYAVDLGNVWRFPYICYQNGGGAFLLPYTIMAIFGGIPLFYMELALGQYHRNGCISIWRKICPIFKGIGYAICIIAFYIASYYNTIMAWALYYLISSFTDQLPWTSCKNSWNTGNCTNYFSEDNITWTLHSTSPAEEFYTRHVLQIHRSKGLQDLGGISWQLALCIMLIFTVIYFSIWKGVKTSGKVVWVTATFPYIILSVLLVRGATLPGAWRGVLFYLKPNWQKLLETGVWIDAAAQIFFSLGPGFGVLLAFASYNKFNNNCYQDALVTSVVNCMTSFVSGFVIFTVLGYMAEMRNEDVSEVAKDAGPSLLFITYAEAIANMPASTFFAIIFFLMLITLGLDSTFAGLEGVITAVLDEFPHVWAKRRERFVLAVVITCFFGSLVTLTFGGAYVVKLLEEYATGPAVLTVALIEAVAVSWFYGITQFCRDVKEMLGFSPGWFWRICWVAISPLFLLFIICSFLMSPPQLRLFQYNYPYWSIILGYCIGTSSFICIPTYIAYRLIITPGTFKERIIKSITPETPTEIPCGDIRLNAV
Method in brief: as §1

[3] = molecular target: T3, cloned human or rodent CNS receptors, channels, and transporters (PDSP panel) (Homo sapiens, UniProt P35372); details: primary assay
T3 construct: expressed in transfected cells
T3 sequence (P35372 whole entry): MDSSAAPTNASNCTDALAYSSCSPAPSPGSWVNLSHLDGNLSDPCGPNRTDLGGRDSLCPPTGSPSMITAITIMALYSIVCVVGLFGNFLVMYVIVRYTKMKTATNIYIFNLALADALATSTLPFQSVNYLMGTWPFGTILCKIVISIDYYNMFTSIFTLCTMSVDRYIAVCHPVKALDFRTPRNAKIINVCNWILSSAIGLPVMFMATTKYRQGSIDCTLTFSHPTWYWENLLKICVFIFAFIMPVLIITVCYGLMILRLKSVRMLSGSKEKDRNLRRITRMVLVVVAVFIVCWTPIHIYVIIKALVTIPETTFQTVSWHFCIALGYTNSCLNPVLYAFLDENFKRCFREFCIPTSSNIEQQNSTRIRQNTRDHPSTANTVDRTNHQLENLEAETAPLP
Method in brief: as §1

[4] = molecular target: T4, cloned human or rodent CNS receptors, channels, and transporters (PDSP panel) (Homo sapiens, UniProt P35462); details: primary assay
T4 construct: expressed in transfected cells
T4 sequence (P35462 whole entry): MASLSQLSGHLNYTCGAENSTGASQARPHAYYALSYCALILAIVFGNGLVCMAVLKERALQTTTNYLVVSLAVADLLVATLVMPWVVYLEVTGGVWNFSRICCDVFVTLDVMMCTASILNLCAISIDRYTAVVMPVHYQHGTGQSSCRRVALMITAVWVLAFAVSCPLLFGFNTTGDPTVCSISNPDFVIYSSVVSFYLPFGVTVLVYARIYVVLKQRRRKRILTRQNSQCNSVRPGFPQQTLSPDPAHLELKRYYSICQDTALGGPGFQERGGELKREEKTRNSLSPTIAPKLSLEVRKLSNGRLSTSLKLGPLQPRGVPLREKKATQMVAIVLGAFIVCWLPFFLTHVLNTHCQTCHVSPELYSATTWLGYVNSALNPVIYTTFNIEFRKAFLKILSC
Method in brief: as §1

[5] = molecular target: T5, cloned human or rodent CNS receptors, channels, and transporters (PDSP panel) (Homo sapiens, UniProt P21918); details: primary assay
T5 construct: expressed in transfected cells
T5 sequence (P21918 whole entry): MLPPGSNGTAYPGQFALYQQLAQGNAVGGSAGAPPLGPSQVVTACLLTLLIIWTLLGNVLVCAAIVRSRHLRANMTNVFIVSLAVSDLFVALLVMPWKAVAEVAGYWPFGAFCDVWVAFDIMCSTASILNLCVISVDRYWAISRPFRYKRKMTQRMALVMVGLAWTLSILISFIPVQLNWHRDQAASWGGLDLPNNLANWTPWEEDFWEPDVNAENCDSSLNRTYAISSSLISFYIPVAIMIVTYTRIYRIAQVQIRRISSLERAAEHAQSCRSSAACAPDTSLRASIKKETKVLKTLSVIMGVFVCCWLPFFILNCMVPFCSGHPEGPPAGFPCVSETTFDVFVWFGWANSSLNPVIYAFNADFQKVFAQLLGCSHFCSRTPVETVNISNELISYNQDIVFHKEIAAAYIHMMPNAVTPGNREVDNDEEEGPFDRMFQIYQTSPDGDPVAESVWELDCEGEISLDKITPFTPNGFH
Method in brief: as §1

[6] = molecular target: T6, cloned human or rodent CNS receptors, channels, and transporters (PDSP panel) (Homo sapiens, UniProt P28566); details: primary assay
T6 construct: expressed in transfected cells
T6 sequence (P28566 whole entry): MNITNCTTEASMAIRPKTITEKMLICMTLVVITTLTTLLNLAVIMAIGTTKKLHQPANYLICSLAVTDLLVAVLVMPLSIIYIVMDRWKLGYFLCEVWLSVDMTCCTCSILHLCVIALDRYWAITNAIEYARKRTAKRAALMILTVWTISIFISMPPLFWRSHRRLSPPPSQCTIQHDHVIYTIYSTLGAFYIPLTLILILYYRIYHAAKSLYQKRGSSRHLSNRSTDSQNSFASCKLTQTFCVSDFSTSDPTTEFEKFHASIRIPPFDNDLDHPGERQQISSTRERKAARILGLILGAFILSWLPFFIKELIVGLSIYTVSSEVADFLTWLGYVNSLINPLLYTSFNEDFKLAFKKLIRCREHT
Method in brief: as §1

[7] = molecular target: T7, cloned human or rodent CNS receptors, channels, and transporters (PDSP panel) (Homo sapiens, UniProt P18089); details: primary assay
T7 construct: expressed in transfected cells
T7 sequence (P18089 1-450): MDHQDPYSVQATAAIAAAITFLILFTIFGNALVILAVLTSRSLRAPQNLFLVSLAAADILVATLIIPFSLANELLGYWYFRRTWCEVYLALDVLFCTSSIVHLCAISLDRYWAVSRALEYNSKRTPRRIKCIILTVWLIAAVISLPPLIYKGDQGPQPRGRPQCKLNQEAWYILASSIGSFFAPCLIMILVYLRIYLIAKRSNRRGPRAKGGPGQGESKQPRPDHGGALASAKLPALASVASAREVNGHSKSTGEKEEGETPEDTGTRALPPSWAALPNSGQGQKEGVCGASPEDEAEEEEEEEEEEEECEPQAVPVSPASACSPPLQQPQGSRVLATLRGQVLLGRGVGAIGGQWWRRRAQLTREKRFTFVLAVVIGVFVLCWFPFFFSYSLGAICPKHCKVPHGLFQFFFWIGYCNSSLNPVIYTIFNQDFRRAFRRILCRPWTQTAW
Method in brief: as §1

[8] = molecular target: T8, cloned human or rodent CNS receptors, channels, and transporters (PDSP panel) (Homo sapiens, UniProt P25100); details: primary assay
T8 construct: expressed in transfected cells
T8 sequence (P25100 1-572): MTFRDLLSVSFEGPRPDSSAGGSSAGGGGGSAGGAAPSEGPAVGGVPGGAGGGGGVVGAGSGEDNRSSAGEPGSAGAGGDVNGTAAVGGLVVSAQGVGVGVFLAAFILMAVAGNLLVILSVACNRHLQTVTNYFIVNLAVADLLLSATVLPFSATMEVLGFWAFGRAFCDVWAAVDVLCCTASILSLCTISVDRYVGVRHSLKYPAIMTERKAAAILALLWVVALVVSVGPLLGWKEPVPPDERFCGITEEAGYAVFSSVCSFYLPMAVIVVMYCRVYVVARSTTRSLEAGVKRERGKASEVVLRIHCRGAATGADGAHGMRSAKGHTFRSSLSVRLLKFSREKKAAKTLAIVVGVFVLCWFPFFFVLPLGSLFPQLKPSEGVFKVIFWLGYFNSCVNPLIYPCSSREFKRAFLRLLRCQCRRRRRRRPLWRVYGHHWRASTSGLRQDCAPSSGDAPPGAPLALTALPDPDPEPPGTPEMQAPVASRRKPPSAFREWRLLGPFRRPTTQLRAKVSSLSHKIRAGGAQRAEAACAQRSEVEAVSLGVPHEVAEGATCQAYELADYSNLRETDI
Method in brief: as §1

[9] = molecular target: T9, cloned human or rodent CNS receptors, channels, and transporters (PDSP panel) (Homo sapiens, UniProt P20309); details: primary assay
T9 construct: expressed in transfected cells
T9 sequence (P20309 whole entry): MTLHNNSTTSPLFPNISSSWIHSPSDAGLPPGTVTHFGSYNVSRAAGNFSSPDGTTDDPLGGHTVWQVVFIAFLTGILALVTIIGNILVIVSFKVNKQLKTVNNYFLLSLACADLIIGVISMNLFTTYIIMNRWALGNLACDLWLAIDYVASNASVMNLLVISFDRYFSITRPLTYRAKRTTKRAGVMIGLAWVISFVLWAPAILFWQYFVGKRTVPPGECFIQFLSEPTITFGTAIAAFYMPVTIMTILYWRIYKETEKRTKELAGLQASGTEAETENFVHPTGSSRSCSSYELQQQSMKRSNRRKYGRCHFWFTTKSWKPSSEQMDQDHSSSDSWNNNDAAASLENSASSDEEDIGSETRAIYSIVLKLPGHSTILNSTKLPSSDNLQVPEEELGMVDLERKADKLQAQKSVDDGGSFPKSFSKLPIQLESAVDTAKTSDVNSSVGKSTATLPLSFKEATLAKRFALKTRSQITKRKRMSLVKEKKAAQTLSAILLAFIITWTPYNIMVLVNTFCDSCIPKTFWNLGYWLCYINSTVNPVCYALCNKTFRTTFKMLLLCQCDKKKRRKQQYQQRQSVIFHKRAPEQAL
Method in brief: as §1

Cl.NC(=O)c1cnc(N[C@@H]2CCCC[C@@H]2N)nc1Nc1cccc(-n2nccn2)c1 [UNC10302682A, P505-15 (PRT06207 HCl)]
Inhibition 1 ([1]; Receptor 5-HT1A, 10 μM): 35.42%
Inhibition 2 ([1]; Receptor 5-HT1A, 10 μM): 0.09%
Inhibition 3 ([1]; Receptor 5-HT1A, 10 μM): 1.29%
Inhibition 4 ([1]; Receptor 5-HT1A, 10 μM): 21.46%
Mean % ([1]; Receptor 5-HT1A, 10 μM, mean of Inhibition 1-4): 14.57%
Inhibition 2 ([2]; Receptor SERT, 10 μM): 8.4% and 8.39%
Inhibition 3 ([2]; Receptor SERT, 10 μM): 11.88% and 10.26%
Inhibition 4 ([2]; Receptor SERT, 10 μM): 20.53% and 20.37%
Mean % ([2]; Receptor SERT, 10 μM, mean of Inhibition 1-4): 14.96% and 10.68%
Inhibition 1 ([3]; Receptor MOR, 10 μM): 27.09%
Inhibition 2 ([3]; Receptor MOR, 10 μM): 20.29%
Inhibition 3 ([3]; Receptor MOR, 10 μM): 17.6%
Inhibition 4 ([3]; Receptor MOR, 10 μM): 20.19%
Mean % ([3]; Receptor MOR, 10 μM, mean of Inhibition 1-4): 21.29%
Inhibition 1 ([4]; Receptor D3, 10 μM): 15.21%
Inhibition 2 ([4]; Receptor D3, 10 μM): 7.11%
Inhibition 3 ([4]; Receptor D3, 10 μM): 21.57%
Inhibition 4 ([4]; Receptor D3, 10 μM): 8.07%
Mean % ([4]; Receptor D3, 10 μM, mean of Inhibition 1-4): 12.99%
Inhibition 1 ([5]; Receptor D5, 10 μM): 21.97%
Inhibition 2 ([5]; Receptor D5, 10 μM): 17.01%
Inhibition 3 ([5]; Receptor D5, 10 μM): 7.24%
Inhibition 4 ([5]; Receptor D5, 10 μM): 14.53%
Mean % ([5]; Receptor D5, 10 μM, mean of Inhibition 1-4): 15.19%
Inhibition 1 ([6]; Receptor 5-HT1E, 10 μM): -23.96%
Inhibition 2 ([6]; Receptor 5-HT1E, 10 μM): -26.62%
Inhibition 3 ([6]; Receptor 5-HT1E, 10 μM): 0%
Inhibition 4 ([6]; Receptor 5-HT1E, 10 μM): -50.26%
Mean % ([6]; Receptor 5-HT1E, 10 μM, mean of Inhibition 1-4): -25.21%
Inhibition 1 ([7]; Receptor Alpha2B, 10 μM): 4.86%
Inhibition 2 ([7]; Receptor Alpha2B, 10 μM): 6.29%
Inhibition 3 ([7]; Receptor Alpha2B, 10 μM): -7.3%
Inhibition 4 ([7]; Receptor Alpha2B, 10 μM): -0.22%
Mean % ([7]; Receptor Alpha2B, 10 μM, mean of Inhibition 1-4): 0.91%
Inhibition 1 ([8]; Receptor Alpha1D, 10 μM): 22.56%
Inhibition 2 ([8]; Receptor Alpha1D, 10 μM): 13.18%
Inhibition 3 ([8]; Receptor Alpha1D, 10 μM): 20.43%
Inhibition 4 ([8]; Receptor Alpha1D, 10 μM): 14.74%
Mean % ([8]; Receptor Alpha1D, 10 μM, mean of Inhibition 1-4): 17.73%
Inhibition 1 ([9]; Receptor M3, 10 μM): 28.46%
Inhibition 2 ([9]; Receptor M3, 10 μM): 2.32%
Inhibition 3 ([9]; Receptor M3, 10 μM): 15.74%
Inhibition 4 ([9]; Receptor M3, 10 μM): 10.41%
Mean % ([9]; Receptor M3, 10 μM, mean of Inhibition 1-4): 14.23%

CC(=O)N1CCC(NC(=O)NC23CC4CC(CC(C4)C2)C3)CC1 [UNC10302683A, AR9281]
Mean % ([1]; 5-HT1A, mean inhibition): -6.08%
Inhibition 1 ([1]; 5-HT1A, replicate 1): 5.09%
Inhibition 2 ([1]; 5-HT1A, replicate 2): -13.88%
Inhibition 3 ([1]; 5-HT1A, replicate 3): -5.6%
Inhibition 4 ([1]; 5-HT1A, replicate 4): -9.91%
Mean % ([2]; SERT, mean inhibition): -8.86% and -6.55%
Inhibition 1 ([2]; SERT): -9.63% and -17.8%
Inhibition 2 ([2]; SERT, replicate 2): -14.12% and -5.23%
Inhibition 3 ([2]; SERT, replicate 3): -7.44% and -8.27%
Inhibition 4 ([2]; SERT, replicate 4): -4.24% and 5.12%
Mean % ([3]; MOR, mean inhibition): 5.26%
Inhibition 1 ([3]; MOR, replicate 1): 2.55%
Inhibition 2 ([3]; MOR, replicate 2): 12.43%
Inhibition 3 ([3]; MOR, replicate 3): 4.76%
Inhibition 4 ([3]; MOR, replicate 4): 1.31%
Mean % ([4]; D3, mean inhibition): -9.76%
Inhibition 1 ([4]; D3, replicate 1): -1.76%
Inhibition 2 ([4]; D3, replicate 2): -6.19%
Inhibition 3 ([4]; D3, replicate 3): -8.7%
Inhibition 4 ([4]; D3, replicate 4): -22.39%
Mean % ([5]; D5, mean inhibition): -11.88%
Inhibition 1 ([5]; D5, replicate 1): -7.18%
Inhibition 2 ([5]; D5, replicate 2): -13.14%
Inhibition 3 ([5]; D5, replicate 3): -18.03%
Inhibition 4 ([5]; D5, replicate 4): -9.17%
Mean % ([6]; 5-HT1E, mean inhibition): -2.2%
Inhibition 1 ([6]; 5-HT1E, replicate 1): 8.11%
Inhibition 2 ([6]; 5-HT1E, replicate 2): -12.87%
Inhibition 3 ([6]; 5-HT1E, replicate 3): -6.96%
Inhibition 4 ([6]; 5-HT1E, replicate 4): 2.94%
Mean % ([7]; Alpha2B, mean inhibition): 16.32%
Inhibition 1 ([7]; Alpha2B, replicate 1): 9.7%
Inhibition 2 ([7]; Alpha2B, replicate 2): 20.78%
Inhibition 3 ([7]; Alpha2B, replicate 3): 26.1%
Inhibition 4 ([7]; Alpha2B, replicate 4): 8.7%
Mean % ([8]; Alpha1D, mean inhibition): -8.81%
Inhibition 1 ([8]; Alpha1D, replicate 1): 7.07%
Inhibition 2 ([8]; Alpha1D, replicate 2): -12.11%
Inhibition 3 ([8]; Alpha1D, replicate 3): -12.82%
Inhibition 4 ([8]; Alpha1D, replicate 4): -17.37%
Mean % ([9]; M3, mean inhibition): -3.62%
Inhibition 1 ([9]; M3, replicate 1): -3%
Inhibition 2 ([9]; M3, replicate 2): -3.76%
Inhibition 3 ([9]; M3, replicate 3): 2.67%
Inhibition 4 ([9]; M3, replicate 4): -10.4%

MDL 28170 [UNC10302675A]
Mean % ([1]; 5-HT1A, mean inhibition): 2.42%
Inhibition 1 ([1]; 5-HT1A, replicate 1): 14.05%
Inhibition 2 ([1]; 5-HT1A, replicate 2): 0.78%
Inhibition 3 ([1]; 5-HT1A, replicate 3): -1.81%
Inhibition 4 ([1]; 5-HT1A, replicate 4): -3.36%
Mean % ([2]; SERT, mean inhibition): -4.02% and -0.38%
Inhibition 1 ([2]; SERT): 19.12% and 14.24%
Inhibition 2 ([2]; SERT, replicate 2): -10.98% and 6.75%
Inhibition 3 ([2]; SERT, replicate 3): -20.47% and -17.68%
Inhibition 4 ([2]; SERT, replicate 4): -3.73% and -4.82%
Mean % ([3]; MOR, mean inhibition): -2.22%
Inhibition 1 ([3]; MOR, replicate 1): 0.73%
Inhibition 2 ([3]; MOR, replicate 2): -3.1%
Inhibition 3 ([3]; MOR, replicate 3): -4.83%
Inhibition 4 ([3]; MOR, replicate 4): -1.67%
Mean % ([4]; D3, mean inhibition): -4.37%
Inhibition 1 ([4]; D3, replicate 1): 0.36%
Inhibition 2 ([4]; D3, replicate 2): 5.37%
Inhibition 3 ([4]; D3, replicate 3): -17.38%
Inhibition 4 ([4]; D3, replicate 4): -5.81%
Mean % ([5]; D5, mean inhibition): 3.1%
Inhibition 1 ([5]; D5, replicate 1): 35%
Inhibition 2 ([5]; D5, replicate 2): -0.46%
Inhibition 3 ([5]; D5, replicate 3): -13.75%
Inhibition 4 ([5]; D5, replicate 4): -8.4%
Mean % ([6]; 5-HT1E, mean inhibition): -6.22%
Inhibition 1 ([6]; 5-HT1E, replicate 1): -3.13%
Inhibition 2 ([6]; 5-HT1E, replicate 2): -5.37%
Inhibition 3 ([6]; 5-HT1E, replicate 3): -7.3%
Inhibition 4 ([6]; 5-HT1E, replicate 4): -9.09%
Mean % ([7]; Alpha2B, mean inhibition): 5.87%
Inhibition 1 ([7]; Alpha2B, replicate 1): 22.44%
Inhibition 2 ([7]; Alpha2B, replicate 2): -15.29%
Inhibition 3 ([7]; Alpha2B, replicate 3): -0.28%
Inhibition 4 ([7]; Alpha2B, replicate 4): 16.62%
Mean % ([8]; Alpha1D, mean inhibition): 0.92%
Inhibition 1 ([8]; Alpha1D, replicate 1): 9.77%
Inhibition 2 ([8]; Alpha1D, replicate 2): 7.35%
Inhibition 3 ([8]; Alpha1D, replicate 3): -4.01%
Inhibition 4 ([8]; Alpha1D, replicate 4): -9.41%
Mean % ([9]; M3, mean inhibition): 3.62%
Inhibition 1 ([9]; M3, replicate 1): 10.69%
Inhibition 2 ([9]; M3, replicate 2): 6.89%
Inhibition 3 ([9]; M3, replicate 3): 8.89%
Inhibition 4 ([9]; M3, replicate 4): -11.99%

— publication PMC9005681, “Use of AD Informer Set compounds to explore validity of novel targets in Alzheimer's disease pathology” (Alzheimer's & Dementia : Translational Research & Clinical …, 2022)
